Data reported in article PMC6290463 (The FEBS journal, 2012).
pKi: −log10 of the molar value. Non-standard residues stand in square brackets, D forms with d. Residues, ends and D or L forms follow the SMILES beside them. *: point of attachment. Sta = CC(C)C[C@H](N)[C@@H](O)CC(=O)O; Isovaleryl = CC(C)CC(=O)*

Tests used:
[1] = target: HIV-1 PR (Human immunodeficiency virus type 1 group M subtype B, UniProt P04585, C555A/C583A/L521I/L551I/Q495K); experiment: Urea dissociation of HIV-1 PR; assay type: physicochemical; conditions: half-maximal velocity; urea 0–4.0 M, 5.5 nM HIV-1 PR, 0.3 mM substrate, HPLC
[2] = target: T1, XMRV PR (Xenotropic MuLV-related virus VP62, UniProt A1Z651); conditions: PDB 3SM1; cited from earlier work
[3] = target: T1, XMRV PR; conditions: previous study; cited from earlier work
[4] = target: T1, XMRV PR; experiment: HPLC-based cleavage assay with peptide RSLLY-PALTP; assay type: biochemical; conditions: read-out: XMRV PR Ki; cited from earlier work

T1 sequence (A1Z651 533-657): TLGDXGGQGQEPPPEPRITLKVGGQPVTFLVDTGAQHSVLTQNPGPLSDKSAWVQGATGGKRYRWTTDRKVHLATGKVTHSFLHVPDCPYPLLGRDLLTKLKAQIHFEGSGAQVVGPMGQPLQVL

In the case of “HIV-1 PR: Purified HIV-1 PR, containing stabilizing mutations (Q7K, L33I, L63I, C67A and C95A)”, the “Urea dissociation (UC50)” value [1] was 1.47 M.
In the case of `CC(C)CC(=O)N[C@H](C(=O)N[C@H](C(=O)N[C@@H](CC(C)C)[C@@H](O)CC(=O)N[C@@H](C)C(=O)N[C@@H](CC(C)C)[C@@H](O)CC(=O)O)C(C)C)C(C)C` [Pepstatin A, pepstatin A] (Isovaleryl-VV[Sta]A[Sta]-OH), the “binding mode to XMRV PR (crystal structure)” value [2] is given as “two inhibitor molecules binding to the enzyme, leaving the catalytic water in place” and the “Inhibition of XMRV PR (in words)” value [3] is given as “only a very weak inhibitor of XMRV PR”.
In the case of `CC(C)CC(=O)N[C@H](C(=O)N[C@H](C(=O)N[C@@H](CC(C)C)[C@@H](O)CC(=O)N[C@@H](C)C(=O)N[C@@H](CC(C)C)[C@@H](O)CC(=O)O)C(C)C)C(C)C` [Pepstatin A, pepstatin A (isovaleryl-Val-Val-Sta-Ala-Sta)] (Isovaleryl-VV[Sta]A[Sta]-OH), the pKi [4] is listed as 5.84.
